Key:
[1] = test system: HeLa cells; experiment: Assay 1 cell proliferation measurement (CTG, 72 h), HeLa; assay type: cell-based, human; details: Homo sapiens, HeLa; Assay 1, 72 h, Cell Titer Glo; read-out: HeLa IC50 [nM] (Cervical cancer)
Summary of the method: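 CTG luminescence readout after 72 h compound exposure at 37 °C; 10-point 2.5-fold dilutions from 100 nM max final; DMSO 0.3% vehicle. IC50 from 4-parameter fit, normalised to 0 h plate (max inhibition) and DMSO (min inhibition).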

[2] = test system: HS578T cells; experiment: Assay 2 cell proliferation measurement, HS578T; assay type: cell-based; details: Homo sapiens, Hs-578T, Breast, ductal carcinoma, read-out: Anti-proliferation IC50 [nM] HS578T
Protocol: (§1) Cell Proliferation Measurement
(§2) The antiproliferative activity of the compounds of the general formula (I) was examined in vitro in human cancer cells. For this purpose, 500 cells, including HeLa cells, A2058 cells, DU145 cells, HMCB cells, IGR37 cells, NCIH1734 cells, OSRC2 cells, or 750 cells, including CAL51 cells, COL0741 cells, DBTRG05MG cells, DKMG cells, G292CLONEA141B1 cells, GB1 cells, HEL cells, HEL9217 cells, JHUEM1 cells, L3.3 cells, LI7 cells, TE4 cells, or 1000 cells, including 8505C cells, HUT78 cells, NCIH1563 cells, NCIH2122 cells, NCIH2172 cells, RVH421 cells, SKMEL3 cells, or 1500 cells, including C32 cells, HS578T cells, JHOM1 cells, NCIH196 cells, OVKATE cells, were plated in 384-well plates with appropriate growth medium and incubated at 37° C. overnight. After 24 h, the cells on the test plate were treated with the compounds of the general formula (I) as and incubated at 37° C. for 72 h. The compounds were added to the cells by means of an HP D300 digital dispenser in a 10 (or more)-step dilution series. As control, the cells were treated with vehicle (DMSO at 0.3% final concentration). After 72 h, the cells were treated with 20 μl/well of 50% CTG solution in PBS (Promega Cell Titer Glo (catalogue #G755B and G756B)) and incubated at room temperature for 10 min, and luminescence was measured by means of a VICTOR V (Perkin Elmer), in order to determine cell viability at the end of treatment. The percentage effect on cell growth and the IC50 derived therefrom were determined for each test substance using the values from untreated wells (=percent viability). The IC50 values were calculated using a 4-parameter fit.

[3] = test system: NCIH196 cells; experiment: Assay 2 cell proliferation measurement, H196; assay type: cell-based; details: Homo sapiens, NCI-H196, Lung small cell carcinoma, read-out: Anti-proliferation IC50 [nM] H196
Protocol: as §1, §2

[4] = test system: A2058 cells; experiment: Assay 2 cell proliferation measurement, A2058; assay type: cell-based; details: Homo sapiens, Melanoma, read-out: Anti-proliferation IC50 [nM] A2058
Protocol: as §1, §2

[5] = test system: RVH421 cells; experiment: Assay 2 cell proliferation measurement, RVH421; assay type: cell-based; details: Homo sapiens, RVH-421, Melanoma, read-out: Anti-proliferation IC50 [nM] RVH421
Protocol: as §1, §2

[6] = test system: SKMEL3 cells; experiment: Assay 2 cell proliferation measurement, SKMEL3; assay type: cell-based; details: Homo sapiens, SK-MEL3, Melanoma, read-out: Anti-proliferation IC50 [nM] SKMEL3
Protocol: as §1, §2

[7] = test system: L3.3 cells; experiment: Assay 2 cell proliferation measurement, L3.3; assay type: cell-based; details: Homo sapiens, Pancreas NS, read-out: Anti-proliferation IC50 [nM] L3.3
Protocol: as §1, §2

[8] = Assay 6 in vitro metabolic stability in cryopreserved human hepatocytes (CL, Fmax); assay type: in vitro ADME; details: 1 μM test compound; for Clblood: hepatic in vivo blood clearance calculated (well-stirred) from half-life in cryopreserved human hepatocytes; for Fmax: maximal oral bioavailability calculated from half-life in cryopreserved human hepatocytes
Summary of the method: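 Test compound at 1 μM incubated with cryopreserved human hepatocytes (1.0×10^6 viable cells/ml, WME with 5% FCS) under shaking, with samples taken from 2 to 90 min, methanol-quenched and analysed by LC-MS/MS. Half-life gave intrinsic clearance, scaled with liver blood flow and hepatocellularity to CL and Fmax.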

[9] = test system: A-2058 cells; experiment: Assay 1 cell proliferation measurement, A-2058; assay type: cell-based; details: Homo sapiens, A2058; Melanoma; read-out: Anti-proliferation IC50 [nM] A-2058

Compound	IC50 [1] [nM]	IC50 [3] [nM]	IC50 [6] [nM]	Clblood [8] [mL/min/kg]	Fmax [8] [%]	IC50 [2] [nM]	IC50 [4] [nM]	IC50 [5] [nM]	IC50 [7] [nM]	IC50 [9] [nM]
O=C1NN=C(c2ccc(-c3ccc(Cl)cc3)c(C(F)(F)F)c2)CO1 [Example 31, 5-[4′-Chloro-2-(trifluoromethyl)biphenyl-4-yl]-3,6-dihydro-2H-1,3,4-oxadiazin-2-one]	4			10.7	52					51
O=C1NN=C(c2ccc(-c3ccc(F)cc3)c(C(F)(F)F)c2)CO1 [Example 3, 5-[4′-Fluoro-2-(trifluoromethyl)biphenyl-4-yl]-3,6-dihydro-2H-1,3,4-oxadiazin-2-one]	3			6.5	70					
C[C@@H]1OC(=O)NN=C1c1ccc(-c2ccc(F)cc2)c(C(F)(F)F)c1 [Example 135, (6S)-5-[4′-Fluoro-2-(trifluoromethyl)biphenyl-4-yl]-6-methyl-3,6-dihydro-2H-1,3,4-oxadiazin-2-one]	1	150	5	16.3	26	33	38	140	82	24

Continued, in another order:

IC50 [1] [nM]	IC50 [3] [nM]	IC50 [6] [nM]	Clblood [8] [mL/min/kg]	Fmax [8] [%]	Compound	IC50 [2] [nM]	IC50 [4] [nM]	IC50 [5] [nM]	IC50 [7] [nM]	IC50 [9] [nM]
2	355	10	8.5	61	C[C@@H]1OC(=O)NN=C1c1ccc(-n2ccc(C(F)(F)F)n2)c(C(F)(F)F)c1 [Example 265, (6S)-6-Methyl-5-{3-(trifluoromethyl)-4-[3-(trifluoromethyl)-1H-pyrazol-1-yl]phenyl}-3,6-dihydro-2H-1,3,4-oxadiazin-2-one]	116	96	262	312	
1	32	3	8.83	60	O=C1NN=C(c2ccc(-c3cnn(C(F)F)c3)c(C(F)(F)F)c2)CO1 [Example 146, 5-{4-[1-(Difluoromethyl)-1H-pyrazol-4-yl]-3-(trifluoromethyl)phenyl}-3,6-dihydro-2H-1,3,4-oxadiazin-2-one]	20	25	47	15	16
